{"source": "patent US20220296535A1", "about": "“Antibacterial Dosage Regime Using Cannabinoids” (Botanix Pharmaceuticals Limited, priority 2019, published 2022)", "key": {"[1]": {"system": "Staphylococcus warneri ATCC 27836", "assay": "Expanded panel MIC micro-broth dilution", "type": "cell-based", "settings": "CaMHB", "method": "(§1) The collaborator supplied sample as dry material. Angela Kavanagh prepared a stock solution at 10 mg/mL in neat DMSO. The highest concentration tested in the assay was 64 μg/mL for bacteria and 128 μg/mL for fungi. 2% DMSO was the final concentration using 1/20 dilution to achieve these concentrations.\n(§2) The compound was serially diluted in Cation-adjusted Mueller Hinton Broth (CaMHB; BD, Cat. No. 212322) two-fold across the wells of polystyrene (PS) 96-well plates (Corning; Cat. No. 3370), plated in duplicate. All plates had flat bottom wells and were covered with low-evaporation lids.\n(§3) Bacteria were cultured in CaMHB at 37° C. overnight, then diluted 40-fold and incubated at 37° C. for a further 2-3 h. The resultant mid-log phase cultures were diluted in CaMHB and added to each well of the compound-containing 96-well plates to give a final cell density of 5×10^5 CFU/mL, and a final compound concentration range of 0.03-64 μg/mL. The plates were covered and incubated at 37° C. for 20 h.\n(§4) Inhibition of bacterial growth was determined visually, where the MIC was recorded as the lowest compound concentration with no visible growth."}, "[2]": {"system": "Enterococcus faecium ATCC 35667", "assay": "Expanded panel MIC micro-broth dilution", "type": "cell-based", "settings": "CaMHB", "method": "as §1, §2, §3, §4"}, "[3]": {"system": "P. acnes ATCC 6919", "assay": "Anaerobic MIC micro-broth dilution", "type": "cell-based, Cutibacterium acnes (formerly Propionibacterium acnes)", "settings": "P. acnes ATCC 6919, anaerobic chamber, BHI, 48 h"}, "[4]": {"system": "S. aureus ATCC 43300", "assay": "Anaerobic MIC micro-broth dilution", "type": "cell-based, Staphylococcus aureus", "settings": "S. aureus ATCC 43300, anaerobic chamber, BHI, 48 h"}, "[5]": {"system": "Staphylococcus aureus ATCC 43300", "assay": "Broth MIC (Example 1)", "type": "cell-based", "settings": "Staphylococcus aureus", "method": "(§5) The collaborator supplied sample as dry material. A stock solution at 10 mg/mL in neat DMSO (11.2 mg in 1.12 mL of DMSO) was prepared. The highest concentration tested in the assay was 128 μg/mL and 2% DMSO as a final concentration using 1/20 dilution to achieve these concentrations."}, "[6]": {"system": "A. acidipropionici ATCC 25562", "assay": "Anaerobic MIC micro-broth dilution", "type": "cell-based, Acidipropionibacterium acidipropionici", "settings": "A. acidipropionici ATCC 25562, anaerobic chamber, BHI, 48 h"}, "[7]": {"system": "C. granulosum ATCC 25564", "assay": "Anaerobic MIC micro-broth dilution", "type": "cell-based, Cutibacterium granulosum", "settings": "C. granulosum ATCC 25564, anaerobic chamber, BHI, 48 h"}, "[8]": {"system": "S. aureus MRSA (106 strains)", "assay": "MIC50/MIC90 micro-broth dilution, MRSA strains", "type": "cell-based, Staphylococcus aureus", "settings": "for Staphylococcus aureus MRSA MIC distribution, number of strains: Table 19"}, "[9]": {"system": "S. aureus MSSA (26 strains)", "assay": "MIC50/MIC90 micro-broth dilution, MSSA strains", "settings": "Staphylococcus aureus, MSSA"}, "[10]": {"system": "Staphylococcus aureus MRSA ATCC 43300 biofilm", "assay": "Biofilm minimum inhibitory concentration (Biofilm MIC), crystal violet OD590", "type": "cell-based", "method": "as §5\nBacteria (Staphylococcus aureus, ATCC 43300; MRSA) was cultured on Tryptic Soy Broth (TSB, BD, Cat. No. 211825) at 37° C. overnight, then it was diluted 1:100 in fresh TSB supplemented with 5% glucose. 100 μL were added across the 96-well of polystyrene (PS) (Corning; Cat. No. 3370) plate, leaving row H as media Control. Plates were incubated at 37° C. for 48 h to generate the biofilm. The plates were prepared in duplicate.\nThe antibiotic controls and CBD were serially diluted in TSB with 5% glucose two-fold across the wells of polystyrene (PS) 96-well plates (Corning; Cat. No. 3370), plated in duplicate. All plates had flat bottom wells and were covered with low-evaporation lids.\n48 h after incubation, bacteria plates were carefully washed three times with 200 μL/well of saline solution (0.9% NaCl, Baxter Healthcare; Cat. No. AHF7124) using manual pipette to remove the planktonic cells but leave the biofilm adhered to the plate wells. Then, 100 μL of diluted controls and CBD were transferred into the washed plates containing the biofilm. Then, these plates were incubated at 37° C. for 24 h.\nNext day, plates were washed three times with saline solution, then fixed with 100 μL/well of 99% methanol for 15 minutes. Once the biofilm was fixed, 100 μL/well 0.1% Crystal Violet Stain (Sigma; Cat No. C0775-25G) was added for 20 minutes and used as indicator of biofilm formation, followed by three times washing and dry well. To dissolve the crystal violet, 150 μL/well of methanol was added to allow for biofilm MIC analysis.\nThe biofilm formation was determined by optical density read at 590 nm (OD590). The percentage of biofilm formation was evaluated comparing the average, standard deviation and percentage of confidence of the media control (Row H) against the rest of the plate.\nAnalysis was performed using Microsoft Excel."}, "[11]": {"system": "132 strains of Staphylococcus aureus (106 MRSA and 26 MSSA strains)", "assay": "MIC50/MIC90 micro-broth dilution, all strains"}, "[12]": {"settings": "listed as Cannabidiol (Batch 2)"}}, "note": "Like-named read-outs stand apart in the source and are kept apart here.", "data": [{"smiles": "C=C(C)C1CCC(C)=CC1c1c(O)cc(CCCCC)cc1O", "note": "(centres unmarked) [Cannabidiol, 2-[3-methyl-6-(1-methylethenyl)-2-cyclohexen-1-yl]-5-pentyl-1,3-benzenediol]", "values": [{"measurement": "Cannabidiol MIC (Batch 1)", "setting": "[1]; Staphylococcus warneri ATCC 27836", "value": 4, "unit": "µg/mL"}, {"measurement": "MIC", "setting": "[1]; Staphylococcus warneri, ATCC27836, Staphylococcus warneri ATCC 27836, read-out: Cannabidiol MIC (Batch 1)", "value": 2, "unit": "µg/mL"}, {"measurement": "Cannabidiol MIC (Batch 1)", "setting": "[2]; Enterococcus faecium ATCC 35667", "value": 1, "unit": "µg/mL"}, {"measurement": "MIC", "setting": "[2]; Enterococcus faecium, ATCC35667, Enterococcus faecium ATCC 35667, read-out: Cannabidiol MIC (Batch 1)", "value": 0.5, "unit": "µg/mL"}, {"measurement": "MIC", "setting": "[3]; [12]", "value": "2/1"}, {"measurement": "MIC", "setting": "[3]; listed as Cannabidiol (CBD)", "value": "active"}, {"measurement": "MIC", "setting": "[4]; [12]", "value": "2/1"}, {"measurement": "MIC", "setting": "[4]; listed as Cannabidiol (CBD)", "value": "active"}, {"measurement": "MIC", "setting": "[5]; ATCC43300, CAMHB, read-out: Broth MIC", "value": 1, "unit": "µg/mL"}, {"measurement": "MIC", "setting": "[5]; ATCC43300, TSB + 5% Glucose, read-out: Broth MIC", "value": 0.5, "unit": "µg/mL"}, {"measurement": "MIC", "setting": "[5]; ATCC 43300 / MRSA, same strain of MRSA, read-out: standard vegetative cell MIC", "value": "0.5 to 1", "unit": "µg/mL"}, {"measurement": "MIC", "setting": "[6]", "value": "active"}, {"measurement": "MIC", "setting": "[6]; Acidipropionibacterium acidipropionici, ATCC25562, read-out: MIC", "value": 0.5, "unit": "µg/mL"}, {"measurement": "MIC", "setting": "[7]; [12]", "value": "4/2"}, {"measurement": "MIC", "setting": "[7]; listed as Cannabidiol (CBD)", "value": "active"}, {"measurement": "MIC50", "setting": "[8]; Staphylococcus aureus, S. aureus MRSA, read-out: MIC 50", "value": 2, "unit": "µg/mL"}, {"measurement": "MIC90", "setting": "[8]; Staphylococcus aureus, S. aureus MRSA, read-out: MIC 90", "value": 4, "unit": "µg/mL"}, {"measurement": "Staphylococcus aureus MRSA MIC distribution, number of strains", "setting": "[8]; MIC 0.015", "value": 0}, {"measurement": "Staphylococcus aureus MRSA MIC distribution, number of strains", "setting": "[8]; MIC 0.03", "value": 0}, {"measurement": "Staphylococcus aureus MRSA MIC distribution, number of strains", "setting": "[8]; MIC 0.06", "value": 0}, {"measurement": "Staphylococcus aureus MRSA MIC distribution, number of strains", "setting": "[8]; MIC 0.5", "value": 0}, {"measurement": "Staphylococcus aureus MRSA MIC distribution, number of strains", "setting": "[8]; MIC 1", "value": 4}, {"measurement": "Staphylococcus aureus MRSA MIC distribution, number of strains", "setting": "[8]; MIC 2", "value": 82}, {"measurement": "Staphylococcus aureus MRSA MIC distribution, number of strains", "setting": "[8]; MIC 4", "value": 18}, {"measurement": "Staphylococcus aureus MRSA MIC distribution, number of strains", "setting": "[8]; MIC 8", "value": 1}, {"measurement": "Staphylococcus aureus MRSA MIC distribution, number of strains", "setting": "[8]; MIC 16", "value": 0}, {"measurement": "Staphylococcus aureus MRSA MIC distribution, number of strains", "setting": "[8]; MIC 32", "value": 0}, {"measurement": "MIC50", "setting": "[9]", "value": 2, "unit": "µg/mL"}, {"measurement": "MIC90", "setting": "[9]", "value": 2, "unit": "µg/mL"}, {"measurement": "biofilm MIC", "setting": "[10]", "value": "1 to 2", "unit": "µg/mL"}, {"measurement": "biofilm MIC relative to standard vegetative cell MIC", "setting": "[10]", "value": "approximately four-fold"}, {"measurement": "inhibition of 48 h biofilm formation", "setting": "[10]; at 2 and 4 μg/mL", "value": "up to 75%"}, {"measurement": "Biofilm MIC (TSB + 5% Gluc) 07/112/18", "setting": "[10]; first biological replicate, two technical replicates, ≥70% inhibition OD590", "value": 4, "unit": "µg/mL"}, {"measurement": "Biofilm MIC (TSB + 5% Gluc) 14/112/18", "setting": "[10]; second biological replicate, two technical replicates, ≥70% inhibition OD590", "value": 2, "unit": "µg/mL"}, {"measurement": "Staphylococcus aureus spp. MIC distribution, number of strains", "setting": "[11]; MIC 0.015 μg/mL", "value": 0}, {"measurement": "Staphylococcus aureus spp. MIC distribution, number of strains", "setting": "[11]; MIC 0.03 μg/mL", "value": 0}, {"measurement": "Staphylococcus aureus spp. MIC distribution, number of strains", "setting": "[11]; MIC 0.06 μg/mL", "value": 0}, {"measurement": "Staphylococcus aureus spp. MIC distribution, number of strains", "setting": "[11]; MIC 0.5 μg/mL", "value": 0}, {"measurement": "Staphylococcus aureus spp. MIC distribution, number of strains", "setting": "[11]; MIC 1 μg/mL", "value": 6}, {"measurement": "Staphylococcus aureus spp. MIC distribution, number of strains", "setting": "[11]; MIC 2 μg/mL", "value": 106}, {"measurement": "Staphylococcus aureus spp. MIC distribution, number of strains", "setting": "[11]; MIC 4 μg/mL", "value": 18}, {"measurement": "Staphylococcus aureus spp. MIC distribution, number of strains", "setting": "[11]; MIC 8 μg/mL", "value": 1}, {"measurement": "Staphylococcus aureus spp. MIC distribution, number of strains", "setting": "[11]; MIC 32 μg/mL", "value": 0}, {"measurement": "MIC range", "setting": "[11]; S. aureus spp. ALL", "value": "0.25 to 8", "unit": "µg/mL"}, {"measurement": "MIC50", "setting": "[11]; Staphylococcus aureus", "value": 2, "unit": "µg/mL"}, {"measurement": "MIC90", "setting": "[11]; Staphylococcus aureus", "value": 4, "unit": "µg/mL"}, {"measurement": "MIC", "setting": "[11]; Staphylococcus aureus, MRSA|MSSA, read-out: MIC across the 132 strains tested", "value": "2 to 4", "unit": "µg/mL"}]}]}
